Reference: patent US12023385B2, “Tunable endogenous protein degradation with heterobifunctional compounds” (DANA-FARBER CANCER INSTITUTE, INC., priority 2017, dated 2024)
“Also recorded” adds a separate entry of the source.

How the values were obtained:
[1] = test system: indicated proteins fused to mutant FKBP* with an HA tag; assay: Immunoblot of proteins fused to dTAG (FKBP*) in MV4;11 leukemia cells; conditions: indicated concentrations, 16 hours, western blot
Source text: To test the general utility of the dTAG technology across several protein types, the indicated proteins fused to the dTAG in MV4;11 leukemia cells were expressed.

FKBP* = biological target: T1, FKBP* (Homo sapiens, UniProt P62942, F37V); assay: Immunoblot of FKBP* degradation in 293FT cells (CRBN-WT or CRBN−/−); format: cell-based; conditions: 4 hours
T1 construct: HA; expressed in transfected cells; host or cells: 293FT cells (CRBN-WT or CRBN-/-)
Experimental: The dTAG is predicated on the selectivity of FKBP* specific ligands over endogenous, wild type FKBP. In 293T cells expressing wild type FKBP12 or FKBP*, dFKBP7 induces targeted degradation only in FKBP* expressing cells. An immunoblot of cells treated with heterobifunctional compounds described in the present invention was performed. 293FT cells (CRBN-WT or CRBN−/−) expressing either HA-tagged FKBP12WT or FKBP* were treated with indicated concentrations of dFKBP7 for 4 hours.
In 293T cells expressing wild type FKBP12 or FKBP*, treatment with dFKBP7 and dFKBP13 induces targeted degradation only in FKBP* expressing cells. Isogenic 293FT cells (CRBN-WT or CRBN−/−) were engineered to expressed either FKBP12WT or FKBP*. Cells were treated with 100 nM of either dFKBP7 or dFKBP13 for 4 hours before lysates were prepared for western immunoblot analysis.
In an effort to define the optimal concentration of dFKB13 heterobifunctional compound to induce degradation of FKBP*, degradation was measured upon treatment with increasing concentrations of dFKBP13. Isogenic 293FT cells (CRBN-WT or CRBN−/−) were engineered to expressed HA-tagged FKBP*. Cells were treated with the indicated dose of dFKBP13 for 4 hours before lysates were prepared for western immunoblot analysis.
To evaluate the kinetic control of targeted degradation FKBP*, dFKBP13 was administered by increased duration. […]

FKBP* fused to Nluc = biological target: T2, FKBP* fused to Nluc (Homo sapiens, UniProt P62942, F37V); assay: Nluc/Fluc luciferase ratio assay of FKBP* degradation in 293FT cells; format: cell-based; conditions: wild type or CRBN−/− 293FT cells, indicated concentrations, 4 hours
T2 construct: Nluc (nano luciferase) fusion partner; expressed in transfected cells; host or cells: 293FT cells (wild type or CRBN-/-)
Experimental: In an effort to identify potent and selective dFKPB heterobifunctional compounds, high throughput measurements of targeted FKBP* degradation were measured by surrogate levels of luciferase. Here, FKBP* is exogenously expressed as a multicistronic transcript with two types of luciferase: nano luciferase (NLuc) and firefly luciferase (FLuc) that allow for cell normalized quantification of FKBP* protein levels. Degradation of FKBP* is measured as a signal ration (Nluc/Fluc) in wild type (FIG. 4A) or CRBN −/− (FIG. 4B) 293FT cells treated with indicated concentrations of dFKBPs for 4 hours.

[2] = test system: KRAS signaling (pMEK and pAKT); assay: Immunoblot of downstream surrogates of KRAS signaling in NIH3T3 cells expressing dTAG-KRAS; format: cell-based
Experimental: (§1) Cells were treated with 500 nM dFKBP7 for the indicated time. Cells were harvested and immunoblotted to measure degradation of FKBP*-KRAS and downstream surrogates of KRAS signaling (e.g. pMEK and pAKT).
In an effort to identify the best performing dFKBP molecule, dTAG-KRAS degradation was profiled across a series of dFKBP molecules. Western blotting of NIH3T3 cells expressing dTAG-KRASG12V were treated with 1 μM of the indicated dFKBP heterobifunctional compounds for 24 hours. Cells were harvested and immunoblotted to measure degradation of FKBP*-KRAS and downstream surrogates of KRAS signaling (e.g. pMEK and pAKT).
(§2) Western blotting of NIH3T3 cells expressing FKBP* fused to the N-terminus of KRAS treated with the indicated concentrations of dFKBP13 for 24 hours. Cells were harvested and immunoblotted to measure degradation of FKBP*-KRAS and downstream surrogates of KRAS signaling (e.g. pMEK and pAKT).
(§3) To evaluate the kinetic control of targeted degradation of dTAG-KRAS, dFKBP13 was administered by increased duration. Western blotting of NIH3T3 cells expressing FKBP* fused to the N-terminus of KRAS treated with 1 μM dFKBP13 for the indicated time. Cells were harvested and immunoblotted to measure degradation of FKBP*-KRAS and downstream surrogates of KRAS signaling (e.g. pMEK and pAKT).
The dFKBP13 heterobifunctional compound potently degrades dTAG-KRAS mutant alleles. […]

FKBP*-KRASG12V = assay: Immunoblot of FKBP*-KRASG12V (dTAG-KRAS) degradation in NIH3T3 cells; format: cell-based
Experimental: as §1
Western blotting of NIH3T3 cells expressing dTAG-KRASG12V were treated with 1 μM of the indicated dFKBP heterobifunctional compounds for 24 hours. Cells were harvested and immunoblotted to measure degradation of FKBP*-KRAS and downstream surrogates of KRAS signaling (e.g. pMEK and pAKT).
as §2, §3
NIH3T3 cells (CRBN-WT) were engineered to express dTAG-KRASG12V. […]

[3] = test system: NIH3T3 cells expressing dTAG-KRASG12V; assay: Propidium iodide cell cycle analysis of NIH3T3 cells expressing dTAG-KRASG12V; format: cell-based; conditions: 48 hours
Experimental: NIH3T3 cells were engineered to express dTAG-KRASG12V. NIH3T3 cells expressing dTAG-KRASG12V were treated with dFKBP7 and dFKBP13 for 48 hours to induce targeted dTAG-KRASG12V degradation. Fixed cells were stained with propidium iodide and cell cycle analysis was performed.

FKBP12WT = biological target: T3, FKBP12WT (Homo sapiens, UniProt P62942); assay: Immunoblot of wild type FKBP12 in 293FT cells (selectivity control); format: cell-based; conditions: 4 hours
T3 construct: HA; expressed in transfected cells; host or cells: 293FT cells (CRBN-WT or CRBN-/-)
Experimental: The dTAG is predicated on the selectivity of FKBP* specific ligands over endogenous, wild type FKBP. […] An immunoblot of cells treated with heterobifunctional compounds described in the present invention was performed. 293FT cells (CRBN-WT or CRBN−/−) expressing either HA-tagged FKBP12WT or FKBP* were treated with indicated concentrations of dFKBP7 for 4 hours.
Isogenic 293FT cells (CRBN-WT or CRBN−/−) were engineered to expressed either FKBP12WT or FKBP*. Cells were treated with 100 nM of either dFKBP7 or dFKBP13 for 4 hours before lysates were prepared for western immunoblot analysis.

[4] = 293FT CRBN-WT or CRBN−/−, indicated concentrations
[5] = isogenic 293FT CRBN-WT or CRBN−/−, 100 nM
[6] = NIH3T3 dTAG-KRASG12V, 1 μM, 24 hours

T1 sequence (P62942 whole entry F37V): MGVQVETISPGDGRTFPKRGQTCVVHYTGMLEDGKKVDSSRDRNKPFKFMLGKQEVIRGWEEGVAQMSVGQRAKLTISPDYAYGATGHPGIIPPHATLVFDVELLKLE
T3 sequence (P62942 whole entry): as the sequence (P62942 whole entry F37V) above, with V37F counted along it
T2 sequence (P62942 2-108 F37V): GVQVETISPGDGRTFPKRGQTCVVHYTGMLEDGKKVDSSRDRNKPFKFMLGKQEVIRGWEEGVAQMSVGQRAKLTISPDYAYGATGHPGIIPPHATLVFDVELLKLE
T2 sequence (Q96SW2 whole entry partner, the tested form may be a part): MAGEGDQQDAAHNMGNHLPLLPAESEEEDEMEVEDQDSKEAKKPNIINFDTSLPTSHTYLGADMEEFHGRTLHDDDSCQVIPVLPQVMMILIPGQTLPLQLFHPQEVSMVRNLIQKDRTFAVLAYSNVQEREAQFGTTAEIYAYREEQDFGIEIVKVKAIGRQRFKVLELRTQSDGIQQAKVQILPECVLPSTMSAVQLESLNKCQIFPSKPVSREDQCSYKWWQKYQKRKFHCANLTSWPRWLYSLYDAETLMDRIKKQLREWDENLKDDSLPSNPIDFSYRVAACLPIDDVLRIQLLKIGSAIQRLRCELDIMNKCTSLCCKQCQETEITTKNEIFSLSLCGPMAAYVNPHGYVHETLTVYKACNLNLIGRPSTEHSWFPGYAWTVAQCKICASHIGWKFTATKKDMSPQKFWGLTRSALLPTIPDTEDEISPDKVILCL
T2 sequence (Q16531 whole entry partner, the tested form may be a part): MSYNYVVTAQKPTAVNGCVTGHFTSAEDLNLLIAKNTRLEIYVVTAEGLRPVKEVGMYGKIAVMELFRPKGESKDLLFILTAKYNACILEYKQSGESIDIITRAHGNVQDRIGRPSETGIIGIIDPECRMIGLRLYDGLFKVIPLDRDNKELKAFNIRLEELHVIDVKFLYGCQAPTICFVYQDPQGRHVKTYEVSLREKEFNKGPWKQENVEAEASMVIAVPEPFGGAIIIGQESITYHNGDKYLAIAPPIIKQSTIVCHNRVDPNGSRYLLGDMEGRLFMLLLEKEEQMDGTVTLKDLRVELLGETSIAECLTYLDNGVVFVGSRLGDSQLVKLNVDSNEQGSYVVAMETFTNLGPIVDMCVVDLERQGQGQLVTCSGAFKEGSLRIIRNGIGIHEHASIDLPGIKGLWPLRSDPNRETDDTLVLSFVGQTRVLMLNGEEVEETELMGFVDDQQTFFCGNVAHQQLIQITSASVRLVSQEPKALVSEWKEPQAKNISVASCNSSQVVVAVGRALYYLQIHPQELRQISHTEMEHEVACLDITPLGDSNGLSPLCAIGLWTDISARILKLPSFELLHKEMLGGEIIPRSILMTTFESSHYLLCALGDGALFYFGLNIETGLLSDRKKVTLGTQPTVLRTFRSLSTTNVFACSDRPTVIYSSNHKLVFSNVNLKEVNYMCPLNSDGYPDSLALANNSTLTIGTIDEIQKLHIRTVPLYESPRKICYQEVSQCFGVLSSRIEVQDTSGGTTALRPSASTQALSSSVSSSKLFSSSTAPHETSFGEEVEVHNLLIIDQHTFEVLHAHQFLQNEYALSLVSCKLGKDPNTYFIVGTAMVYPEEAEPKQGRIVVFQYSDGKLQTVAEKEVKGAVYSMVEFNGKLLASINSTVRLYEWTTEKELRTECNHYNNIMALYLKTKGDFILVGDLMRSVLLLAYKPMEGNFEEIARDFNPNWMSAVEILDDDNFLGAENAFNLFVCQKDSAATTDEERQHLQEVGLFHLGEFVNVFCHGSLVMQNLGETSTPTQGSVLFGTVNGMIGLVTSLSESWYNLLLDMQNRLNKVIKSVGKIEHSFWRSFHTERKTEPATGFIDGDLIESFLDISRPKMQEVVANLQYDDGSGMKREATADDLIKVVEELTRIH

CC[C@H](C(=O)N1CCCC[C@H]1C(=O)O[C@H](CCc1ccc(OC)c(OC)c1)c1cccc(OCC(=O)NCCCOCCOCCOCCCNC(=O)COc2cccc3c2C(=O)N(C2CCC(=O)NC2=O)C3=O)c1)c1cc(OC)c(OC)c(OC)c1 (some centres unmarked) [dFKBP7]
targeted degradation of proteins fused to dTAG [1]: degradation was observed with nanomolar concentrations
degradation of HA-tagged FKBP* (FKBP*; [4]): CRBN-dependent degradation of FKBP*
degradation of FKBP* (FKBP*; [5]): CRBN-dependent degradation of FKBP*
degradation of FKBP* as signal ratio (Nluc/Fluc) (FKBP* fused to Nluc): effectively degrade FKBP* in a cereblon dependent manner
downstream p-AKT signal ([2]; NIH3T3 N-terminal dTAG-KRAS, 500 nM, indicated time): decrease in p-AKT signal
degradation of N-terminal dTAG-KRAS (FKBP*-KRASG12V; NIH3T3, 500 nM, indicated time): potent degradation; also recorded: degraded
cell cycle profile (S-phase entry) [3]: diminished S-phase entry
degradation of HA-tagged FKBP12WT (FKBP12WT; [4]): not FKBPWT
degradation of FKBP12WT or endogenous FKBP12 (FKBP12WT; [5]): not FKBP12WT or endogenous FKBP12

CC[C@H](C(=O)N1CCCC[C@H]1C(=O)O[C@H](CCc1ccc(OC)c(OC)c1)c1cccc(OCC(=O)NCCCCCCCCNC(=O)COc2cccc3c2C(=O)N(C2CCC(=O)NC2=O)C3=O)c1)c1cc(OC)c(OC)c(OC)c1 (some centres unmarked) [dFKBP9]
inhibition of downstream signaling (pMEK, pAKT) [2, 6]: inhibition of downstream signaling
degradation of FKBP*-KRAS (FKBP*-KRASG12V; [6]): potent degradation
